Where “and” joins values, the source holds several entries; their conditions need not be identical. Equal values may be shown once.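 How tested: cells in 96-well plates exposed to compound for 48 hours at five concentrations. The concentration for 50% growth inhibition is given as GI50. Definition used: TGI = concentration required for complete inhibition of growth.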
Tests used:
Experiment in all cases: inhibition of tumour cell growth, NCI panel, 48 h
HOP-92 NSCLC = system: HOP-92 NSCLC
MDA-MB-231 breast = system: MDA-MB-231 breast
SW-620 colon = system: SW-620 colon
NCI-H23 lung = system: NCI-H23 lung
HS 578T breast = system: HS 578T breast
SF-268 CNS = system: SF-268 CNS
RPMI-8226 leukemia = system: RPMI-8226 leukemia
MOLT-4 leukemia = system: MOLT-4 leukemia
HT29 colon = system: HT29 colon
SF-539 CNS = system: SF-539 CNS

Compound	GI50 (HOP-92 NSCLC)	TGI (HOP-92 NSCLC)	GI50 (MDA-MB-231 breast)	TGI (MDA-MB-231 breast)	GI50 (SW-620 colon)	TGI (SW-620 colon)	GI50 (NCI-H23 lung)	TGI (NCI-H23 lung)	GI50 (HS 578T breast)	TGI (HS 578T breast)	GI50 (SF-268 CNS)	TGI (SF-268 CNS)	GI50 (RPMI-8226 leukemia)	TGI (RPMI-8226 leukemia)	GI50 (MOLT-4 leukemia)	TGI (MOLT-4 leukemia)	GI50 (HT29 colon)	TGI (HT29 colon)	GI50 (SF-539 CNS)	TGI (SF-539 CNS)
COc1cc2nc(-c3ccc(Cl)cc3)cc(OCCCN3CCCCC3)c2cc1OC	1.02 µM	6.24 µM	0.666 µM	4 µM	3.09 µM	> 100 µM	2.95 µM	> 100 µM	2.11 µM	7.18 µM	3.2 µM	> 100 µM	–	–	–	–	–	–	–	–
CCOC(=O)CCCn1c(SC)nc2[nH]cc(-c3ccccc3)c2c1=O	7.62 µM	41.1 µM	25.8 µM	66.7 µM	20.7 µM	78.6 µM	11.6 µM	34.6 µM	23.8 µM	77.4 µM	20.8 µM	87.8 µM	14.6 µM	36.3 µM	0.489 µM	10.1 µM	19.5 µM	59.7 µM	18.4 µM	46.1 µM
C=CCCCCC/C=C\[C@H](O)C#CC#C/C=C/CO	52.8 µM	> 100 µM	14.5 µM	33.8 µM	27 µM	78.5 µM	22.6 µM	50.9 µM	45.4 µM	> 100 µM	24.5 µM	70.5 µM	14 µM	32.2 µM	17.3 µM	49.2 µM	> 100 µM	> 100 µM	58.2 µM	> 100 µM
COc1cc(N(CCC#N)CCC#N)ccc1/C(N=Nc1ccc([N+](=O)[O-])cc1)=N/NC(=O)c1cc(Br)ccc1O	79.6 µg/mL	> 150 µg/mL	35.7 µg/mL	85.2 µg/mL	57.4 µg/mL	> 150 µg/mL	51.2 µg/mL	> 150 µg/mL	69.8 µg/mL	> 150 µg/mL	19.3 µg/mL	78.7 µg/mL	38.2 µg/mL	> 150 µg/mL	42.6 µg/mL	128 µg/mL	43.5 µg/mL	105 µg/mL	33.2 µg/mL	122 µg/mL
CC(C)=CC/C=C(/C)[C@H]1CC[C@]2(C)[C@@H]1CC[C@@H]1[C@@]3(C)CCCNC(C)(C)[C@@H]3CC[C@]12C	1.5 µM	3.58 µM	–	–	1.82 µM	3.68 µM	3.17 µM	–	4.96 µM	22.3 µM	3.82 µM	16.7 µM	2.12 µM	4.97 µM	2.15 µM	5.93 µM	1.71 µM	3.67 µM	2.85 µM	9.13 µM
O=c1c2sc(=S)n(-c3ccc(F)cc3)c2ncn1Cc1ccc(F)cc1F	44.8 µM	> 100 µM	> 100 µM	> 100 µM	> 100 µM	> 100 µM	> 100 µM	> 100 µM	78.8 µM	> 100 µM	76 µM	> 100 µM	> 100 µM	> 100 µM	> 100 µM	> 100 µM	> 100 µM	> 100 µM	> 100 µM	> 100 µM
COc1ccc(C(C)=O)cc1N1C(=O)C2C(C1=O)C1(c3ccccc3)C(=O)C2(c2ccccc2)C(c2ccc(C)cc2)=C1c1ccc(C)cc1 (centres undefined)	21.7 µM	> 100 µM	33.1 µM	> 100 µM	> 100 µM	> 100 µM	> 100 µM	> 100 µM	> 100 µM	> 100 µM	> 100 µM	> 100 µM	> 100 µM	> 100 µM	> 100 µM	> 100 µM	> 100 µM	> 100 µM	> 100 µM	> 100 µM
CN(C)N=Nc1ccc(NC=O)cc1	–	> 100 µM	–	> 100 µM	–	> 100 µM	–	–	–	–	–	–	–	> 100 µM	–	> 100 µM	–	> 100 µM	–	> 100 µM
Cn1c2ccccc2c2c3c(c4c5cc(Br)ccc5n(C)c4c21)C(=O)N(O)C3=O	0.18 µM	–	–	–	0.127 µM	> 100 µM	–	–	1.09 µM	> 100 µM	–	–	–	–	0.0474 µM	0.275 µM	–	–	0.0403 µM	0.323 µM
O=C(OC(CNc1cc(=O)n(Cc2ccccc2)c(=O)n1Cc1ccccc1)CN1CCCC1)c1ccccc1 (centres undefined)	–	–	75.3 µM	> 100 µM	> 100 µM	> 100 µM	> 100 µM	> 100 µM	> 100 µM	> 100 µM	> 100 µM	> 100 µM	29.3 µM	> 100 µM	> 100 µM	> 100 µM	35 µM	> 100 µM	> 100 µM	> 100 µM
NC(=Nc1c([N+](=O)[O-])cnc2ccccc12)N1CCOCC1	–	–	–	> 100 µM	–	> 100 µM	–	> 100 µM	–	> 100 µM	–	> 100 µM	–	> 100 µM	–	> 100 µM	–	> 100 µM	–	> 100 µM
C=C(CNCc1ccccc1)c1ccc(C(=O)Nc2ccccc2N)cc1	15.1 µM	55.9 µM	13.2 µM	54.5 µM	8.5 µM	> 100 µM	2.37 µM	8.23 µM	15.2 µM	> 100 µM	7.43 µM	45.6 µM	3.08 µM	> 100 µM	–	–	–	–	7.63 µM	55.2 µM
Cc1ccc(C)c(C2=C(c3cn(C)c4ccccc34)C(=O)NC2=O)c1	–	–	> 25 µM	> 25 µM	13 µM	> 25 µM	> 25 µM	> 25 µM	> 25 µM	> 25 µM	> 25 µM	> 25 µM	> 22 µM	> 25 µM	12.4 µM	> 25 µM	> 16 µM	> 25 µM	> 16.4 µM	> 25 µM
C=C1C(=O)OC2CCN3CC=C(COC(=O)C(C)(O)C4(CO4)C1C)C23 (centres undefined)	–	> 100 µM	–	> 100 µM	–	> 100 µM	–	> 100 µM	–	> 100 µM	–	> 100 µM	–	–	–	> 100 µM	–	> 100 µM	–	–
S=C1NC2(CCCCCC2)NN1c1ccccc1	–	> 100 µM	–	> 100 µM	–	> 100 µM	–	> 100 µM	–	> 100 µM	–	> 100 µM	–	> 100 µM	–	> 100 µM	–	> 100 µM	–	–
O=C(O)CCC(=O)c1ccc[nH]1	–	> 100 µM	–	> 100 µM	–	–	–	> 100 µM	–	> 100 µM	–	> 100 µM	–	> 100 µM	–	> 100 µM	–	> 100 µM	–	> 100 µM
CC(C)c1ccc2c(c1)CC[C@@H]1[C@@](C)(C(=O)O)CCC[C@]21C	20.7 µM	76.8 µM	1.31 µM	6.04 µM	10.2 µM	22.8 µM	–	–	3.08 µM	9 µM	–	–	2.47 µM	6.19 µM	–	–	–	–	–	–
CN1CCN(CCOc2ccc(-c3cnc4c(-c5ccccc5F)cnn4c3)cc2)CC1	1.31 µM	3.15 µM	1.54 µM	3.08 µM	1.77 µM	3.26 µM	1.7 µM	3.19 µM	2 µM	5.22 µM	2.04 µM	4.73 µM	1.57 µM	5.44 µM	1.79 µM	4.36 µM	–	–	1.59 µM	2.96 µM
Cc1nc2c(-c3cnc(N)nc3)nc(N3CCOCC3)nc2n1C(C)C	–	–	–	> 4.14 µM and 27.1 µM	–	> 100 µM	–	–	–	0.578 µM and 0.199 µM	–	> 100 µM	0.179 µM and 0.123 µM	> 3 µM and 10.9 µM	0.297 µM and 0.197 µM	> 59.3 µM	–	–	–	1.17 µM and 0.481 µM
CCN1CCN(C(c2ccc(C(F)(F)F)cc2)c2ccc3cccnc3c2O)CC1 (centres undefined)	3.62 µM	25.3 µM	2.97 µM	25.3 µM	4.42 µM	19.9 µM	2.35 µM	14.9 µM	–	–	1.36 µM	12.8 µM	0.798 µM	16.7 µM	2.12 µM	6.05 µM	5.31 µM	21 µM	1.68 µM	10.1 µM
COc1ccc(C(=O)C(c2ccc(OC)cc2)C2(O)C(=O)Nc3ccc([N+](=O)[O-])cc32)cc1 (centres undefined)	–	> 100 µM	–	–	–	> 100 µM	–	> 100 µM	–	–	–	> 100 µM	–	> 100 µM	–	> 100 µM	–	> 100 µM	–	24 µM
COC(=O)C1=C(O)c2cc(OC)c(OC)cc2C(c2ccc(OC)c(OC)c2)C1 (centres undefined)	–	> 100 µM	–	–	–	> 100 µM	–	> 100 µM	–	–	–	> 100 µM	–	> 100 µM	–	> 100 µM	–	> 100 µM	–	> 100 µM
COc1cnc2c(c1)C(=O)c1c-2n(CCCNC(C)C)c(=O)c2cc(Cl)ccc12	1.05 µM	2.44 µM	1.39 µM	3.18 µM	0.0503 µM	1.71 µM	–	–	1.52 µM	4.08 µM	0.148 µM	1.94 µM	1.21 µM	3.35 µM	0.0397 µM	0.452 µM	0.398 µM	2.09 µM	0.554 µM	1.87 µM
C=C1CC[C@@H]2[C@](C)(COC(C)=O)[C@H](OC(C)=O)CC[C@@]2(C)[C@@H]1CC(Sc1ccccc1)C1=CCOC1=O (some centres undefined)	2.71 µM	8.71 µM	2.47 µM	6.3 µM	0.716 µM	3.64 µM	1.78 µM	3.67 µM	4.89 µM	63.3 µM	1.71 µM	3.55 µM	0.343 µM	2.73 µM	1.48 µM	6.15 µM	1.77 µM	3.77 µM	–	–

Reference: PubChem BioAssay (NCI)
